Experimental data reported in patent US11319289B2, “5-hydroxy pyridine-based compound for use as P2X1 and P2X3 receptor antagonist and pharmaceutical composition comprising same” (GWANGJU INSTITUTE OF SCIENCE AND TECHNOLOGY, priority 2017, dated 2022).
“Also recorded” adds a separate entry of the source.

Tests used:
CYP2C9 = molecular target: T1, CYP2C9 (Homo sapiens, UniProt P11712); assay: CYP inhibition assay (Vivid fluorometric), 2C9; format: biochemical; conditions: human, recombinant human CYP2C9, pH 8; 1 μM in Table 5; read-out: CYP450 inhibition, 2C9 isozyme
T1 construct: purchased Invitrogen
T1 sequence (P11712 whole entry): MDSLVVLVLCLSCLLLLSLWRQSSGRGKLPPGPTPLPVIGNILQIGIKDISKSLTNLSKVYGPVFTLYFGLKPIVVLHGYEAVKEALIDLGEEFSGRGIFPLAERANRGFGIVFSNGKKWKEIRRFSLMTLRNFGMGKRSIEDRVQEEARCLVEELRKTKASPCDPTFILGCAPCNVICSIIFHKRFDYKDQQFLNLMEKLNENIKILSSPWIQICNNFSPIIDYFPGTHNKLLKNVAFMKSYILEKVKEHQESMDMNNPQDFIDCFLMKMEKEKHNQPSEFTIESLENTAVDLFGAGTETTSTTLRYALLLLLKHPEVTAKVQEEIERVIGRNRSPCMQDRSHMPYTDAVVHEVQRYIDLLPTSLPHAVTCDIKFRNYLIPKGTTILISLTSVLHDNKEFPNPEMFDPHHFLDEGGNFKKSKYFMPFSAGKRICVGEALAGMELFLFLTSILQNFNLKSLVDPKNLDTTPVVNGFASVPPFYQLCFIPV
Procedure: CYP450 (1A2, 2C9, 3A4) enzyme assay was performed by a fluorometric assay using a Vivid® CYP450 screening kit (Invitrogen, USA, CA) in a 96-well black plate according to manufacturer's instructions with some modifications. The assay was performed at room temperature, and the final assay volume was 100 μL. […]
A master pre-mixture (enzyme (0.5 nmol recombinant human CYP450 enzyme)/NADP regeneration solution (333 mM glucose-6-phosphate dissolved, 30 U/mL glucose-6-phosphate dehydrogenase in 100 mM KH2PO4 solution at pH 8.0)) was prepared as a CYP450 reaction buffer (200 mM KH2PO4, pH 8.0). The master pre-mixture was added to each well of the 96 well plate, followed by the vehicle DMSO (control) and test compounds, and the mixture was preincubated for 10 minutes in the plate for background reading. Subsequently, the enzyme reaction was immediately initiated through the addition of CYP450 substrate/NADP^+ mixture. After incubation for 40 minutes, the fluorescence of the product was measured with a CHAMELEON™ multi-technology plate reader (2C9, 3A4: excitation wavelength of 530 nm and emission wavelength of 590 nm, 1A2: excitation wavelength of 415 nm and emission wavelength of 460 nm). The effect of the test compounds on CYP450 (1A2, 2C9, 3A4) was expressed as the percentage of enzyme activity.

[1] = system: SNL rats (mechanical allodynia); assay: Antiallodynic effect (von Frey) in spinal nerve ligation (SNL) rats; format: in vivo, rat
Procedure: (§1) 3-1. Evaluation of In Vivo Efficacy
(§2) The antiallodynic effects (mechanical allodynia) were evaluated using rats according to a previously reported protocol. In order to evaluate the withdrawal threshold, rats (naive, SNL and CIPN) were placed on a plastic mesh floor of individual plastic cages. The rats were allowed to acclimate to the environment for 30 minutes and examined after intrathecal or intravenous administration to the caudal vein. The control group received the same volume of vehicle (intrathecal administration of saline or DMSO, intravenous administration of DMSO:PEG:PBS=1:6:3 v/v %) as the experimental groups. Evaluation of the mechanical withdrawal threshold was measured in responses to the application of calibrated von Frey filaments (Stoelting, Wood Dale, Ill., USA) to the hind paw of the rats through the holes on the mesh floor underneath the cage using the ‘up and down method’. A series of eight von Frey filaments (0.4, 0.7, 1.2, 2.0, 3.6, 5.5, 8.5, and 15 g) was applied perpendicular to the sole of the hind paw for 5 seconds while the head was bent. Active withdrawal or flinching of the paw was considered as a positive reaction. The absence of response in the rats, when a pressure was applied to 15 g von Frey filament, was used as a cut-off value. Only rats with definite allodynia (i.e., mechanical withdrawal threshold: less than 4 g after SNL or less than 5 g after CIPN) were tested. The rats after termination of the experiments were euthanized through an overdose of sevoflurane. The withdrawal threshold data for the von Frey filament test was calculated as % MPE (maximum possible effect) based on the following Calculation Equation: % MPE=[(Post-drug threshold−Post-injured baseline threshold)/(Cutoff threshold−post-injured baseline threshold)×100]. Dose-response data were analyzed using Scheffe's post hoc test and one-way analysis of variance (ANOVA).

[2] = molecular target: T2, mouse P2X1 receptor (mP2X1) (Mus musculus, UniProt P51576); assay: Two-electrode voltage clamp assay, recombinant mP2X1 receptor in Xenopus oocytes; format: cell-based; conditions: 10 μM compound, 2 μM ATP, mean±SEM n≥3 (footnote c), read-out: mP2X1 % inhibitory effect at 10 μM
T2 construct: expressed in transfected cells; host or cells: Xenopus oocytes (cRNA microinjection)
T2 sequence (P51576 1-399): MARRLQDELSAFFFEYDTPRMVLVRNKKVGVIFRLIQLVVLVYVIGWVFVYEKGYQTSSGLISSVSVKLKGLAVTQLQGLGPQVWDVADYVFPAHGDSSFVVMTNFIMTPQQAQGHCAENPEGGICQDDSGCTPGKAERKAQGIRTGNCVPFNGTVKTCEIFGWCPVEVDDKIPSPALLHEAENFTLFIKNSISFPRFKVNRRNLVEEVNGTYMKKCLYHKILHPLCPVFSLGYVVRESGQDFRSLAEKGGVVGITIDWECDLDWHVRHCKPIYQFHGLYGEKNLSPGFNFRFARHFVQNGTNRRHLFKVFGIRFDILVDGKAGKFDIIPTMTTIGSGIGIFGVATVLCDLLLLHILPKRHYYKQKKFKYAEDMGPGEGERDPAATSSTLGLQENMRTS
Procedure: 1-1. Two-Electrode Voltage Clamp Assay for Recombinant mP2X1 and hP2X3 Receptors
Xenopus oocytes were isolated and incubated with 270 U/mg of collagenase at 23 to 24° C. for 1.5 hours. Defolliculated oocytes were kept in Barth's solution at 18° C. After 1 day, the defolliculated oocytes were each microinjected cytosolically with mP2X1 and human P2X3 receptor cRNA ([…], 1 μg/mL), incubated for 24 hours at 18° C. in Barth's solution. The cRNA-injected oocytes were kept for 12 days at 4° C. ATP-activated membrane currents (Vh=−70 mV) were recorded from the cRNA-injected oocytes using the two-electrode voltage clamp technique (Axoclamp 2B amplifier). Voltage recording ([…] tip resistance) and current-recording microelectrodes (5 MΩ tip resistance) were filled with 3.0 M KCl. Oocytes were placed in an electrophysiological chamber continuously superfused with Ringer's solution (5 mL/min, at 18° C.) containing 110 mM NaCl, 2.5 mM KCl, 5 mM HEPES and 1.8 mM BaCl2, with pH adjusted to 7.5. To induce an evoked current, 2 μM ATP was superfused for 60 to 120 seconds and then washed for 20 min. For data analysis, the ATP-evoked current was normalized at pH 7.5. The compounds were introduced to the fixed oocytes 20 minutes prior to ATP exposure in the electrophysiological chamber. IC50 values (the concentration of the compound required to inhibit the ATP response by 50%) were determined by Hill plots designed using the Chemical Formula: log(I/Imax−1), where I is the current evoked by ATP in the presence of an antagonist. Data are presented as mean±SEM (n≥3) from different batches of oocytes.
In order to investigate the structure-activity relationship (SAR) of the compounds synthesized in the present invention, the antagonistic activity was evaluated by a two-electrode voltage clamp (TEVC) assay in Xenopus oocytes expressing the recombinant mP2X1 or hP2X3, respectively. The hP2X7R antagonistic activity was assessed using an ethidium ion accumulation assay in human HEK293 cells stably expressing the recombinant human P2X7R.

[3] = system: neuropathic pain (NeP) animal models; assay: Efficacy in neuropathic pain (NeP) animal models, model not specified; format: in vivo, rat
Procedure: as §1, §2

Row | Compound | inhibition at 40 min, 1 µM (CYP2C9) | ED50 ([1]; Rattus norvegicus, antiallodynic effect, intravenous administration) | inhibition at 10 µM [2] | antiallodynic effect upon intraperitoneal and intravenous administration ([3]; NeP animal models, i.p. and i.v.) | antiallodynic effect upon intramedullary administration ([3]; NeP rats) | antiallodynic efficacy, MPE % ([1]; 1 μg, intrathecal administration) | paw withdrawal threshold ([1]; intrathecal administration, von Frey) | in vivo efficacy in early animal experiments ([3]; early animal experiments)
1 | CCCc1nc(Cc2cccc(Oc3ccccc3)c2)c(C)c(C(=O)OC)c1O [Compound 28, Methyl 3-hydroxy-5-methyl-6-(3-phenoxybenzyl)-2-propylisonicotinate] | 28 ± 3% | 2.62 mg/kg | – | – | – | – | – | –
2 | CCCc1nc(Cc2cccc(Oc3ccccc3)c2)c(C)c(C(=O)O)c1O [Compound 29, 3-Hydroxy-5-methyl-6-(3-phenoxybenzyl)-2-propylisonicotinic acid] | 26 ± 2% | – | 23.3 ± 4.8% | no antiallodynic effect; also recorded: no pharmacological activity was observed; also recorded: did not provide an antiallodynic effect | potent antiallodynic effect | 58±19% | increase in paw withdrawal threshold | –
3 | CCCc1nc(CCc2ccc(OC)cc2)c(C(=O)O)c(C(=O)O)c1O [Compound 13d, 5-Hydroxy-2-(4-methoxyphenethyl)-6-propylpyridine-3,4-dicarboxylic acid] | – | – | 42.8 ± 7.4% | – | – | – | – | weak in vivo efficacy
